Results published in patent US7820201B2, “System for manufacturing controlled release dosage forms, such as zero-order release profile dosage form manufactured by three-dimensional printing” (Massachusetts Institute of Technology, priority 2001, dated 2010).
Where two headings read alike, the source gives them in different places.

Settings: for ko, best fit rate constant for equation 9: Co 280 mgAPI/cc, 3-D release, simulated intestinal fluid pH 7.4, 37° C.
Description: The concentration C0 refers to the amount of API per unit volume in the dosage form after compression.
Each of the API release curves in FIG. 16 was fit to Equation 9 by performing a least-squares fit between the empirical data and model. This was done to determine the relevance of the model, and to determine rate constants for the powder/API systems for later use. […] For this purpose, the rate constants in the two different directions were assumed to be equal.
The erosion rate constants are given in units of mg/hr cm^2 where mg is mg of API released into the dissolution fluid. R^2 is a statistical measure of correlation, with a value of 1 indicating perfect correlation.

SMILES: O=C(O)Cc1ccccc1Nc1c(Cl)cccc1Cl [diclofenac sodium]
- linear erosion rate constant delta r/delta t (70% Lactose: 30% HPMC conventional tablets): 0.341 mm/hr
- ko, best fit rate constant for equation 9 (Lactose:HPMC 60:40, 100 mg API): 6.092 mg/hr · cm^2
- ko, best fit rate constant for equation 9 (Lactose:HPMC 70:30, 100 mg API): 9.540 mg/hr · cm^2
- ko, best fit rate constant for equation 9 (Lactose:HPMC 80:20, 100 mg API): 22.238 mg/hr · cm^2
